{"source": "patent US12358918B2", "about": "“Aryl hydrocarbon receptor (AHR) activator compounds as cancer therapeutics” (THE BROAD INSTITUTE, INC., priority 2018, dated 2025)", "key": {"[1]": {"biological_target": "recombinant human Adenosine A2A (FAST-002C) receptor (Homo sapiens, UniProt P29274)", "sequence (P29274 whole entry)": "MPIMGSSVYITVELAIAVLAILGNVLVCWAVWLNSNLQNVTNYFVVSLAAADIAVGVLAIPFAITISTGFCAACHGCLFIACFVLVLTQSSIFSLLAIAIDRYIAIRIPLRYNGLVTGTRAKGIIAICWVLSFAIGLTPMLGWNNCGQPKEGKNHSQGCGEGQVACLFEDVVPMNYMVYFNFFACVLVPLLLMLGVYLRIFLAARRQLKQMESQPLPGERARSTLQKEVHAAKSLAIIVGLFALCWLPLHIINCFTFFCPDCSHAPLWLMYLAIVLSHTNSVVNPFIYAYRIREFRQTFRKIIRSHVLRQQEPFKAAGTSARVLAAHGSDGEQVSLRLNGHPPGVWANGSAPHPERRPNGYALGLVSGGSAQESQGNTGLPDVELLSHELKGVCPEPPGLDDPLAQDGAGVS", "assay": "cAMP HTRF assay, Adenosine A2A receptor, antagonist mode", "format": "cell-based"}, "[2]": {"biological_target": "T1, recombinant human Adenosine A3 (FAST-004C) receptor (Homo sapiens, UniProt P0DMS8)", "T1 sequence (P0DMS8 1-318)": "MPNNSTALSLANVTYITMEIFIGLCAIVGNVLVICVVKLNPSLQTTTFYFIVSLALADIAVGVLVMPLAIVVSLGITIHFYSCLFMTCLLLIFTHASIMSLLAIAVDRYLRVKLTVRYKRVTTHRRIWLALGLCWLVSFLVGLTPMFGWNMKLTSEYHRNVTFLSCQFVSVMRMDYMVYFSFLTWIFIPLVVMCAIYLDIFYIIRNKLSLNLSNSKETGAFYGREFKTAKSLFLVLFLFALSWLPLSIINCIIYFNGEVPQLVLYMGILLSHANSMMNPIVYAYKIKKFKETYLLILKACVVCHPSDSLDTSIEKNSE", "assay": "cAMP HTRF assay, Adenosine A3 receptor, antagonist mode", "format": "cell-based"}, "[3]": {"tested_on": "MDA-MB-231 breast cancer cell lines", "assay": "cytotoxicity, control cells vs cells overexpressing CYP1A1", "format": "cell-based", "excerpt": "The dependence of each compound's cytotoxic effects upon CYP1A1 was also examined, via screening of MDA-MB-231 breast cancer cell lines for cytotoxic response. The CYP1A1-dependence of the cytotoxic response of to each tested compound was specifically determined by comparing the cytotoxicity of each compound administered to control cells with that of the compound administered to corresponding cells that overexpressed CYP1A1. […]"}, "[4]": {"tested_on": "Twelve different breast cancer cell lines", "assay": "adenosine receptor antagonists and agonists dosed on twelve breast cancer cell lines", "format": "cell-based", "details": "32 adenosine receptor antagonists/agonists compared; FIG. 6B"}, "[5]": {"tested_on": "MDA-MB-468 breast cancer cells", "assay": "Western immunoblot of treated cells over 24 hours", "format": "cell-based", "details": "FIG. 18", "procedure": "Adherent cells were washed once with cold 1×PBS (Corning #01018002) and lysed with RIPA buffer (Sigma #R0278) supplemented by protease and phosphatase inhibitors (Sigma). Protein content was quantified using the DC Protein Assay (BioRad #5000111). Samples were reduced with (loading buffer) and boiled at 95° C. before being resolved by SDS gel electrophoresis on 4-20% Tris/glycine gels (Invitrogen). Proteins were transferred using the IBlot2 (Thermo #IB21001) onto the iBlot™ 2 nitrocellulose Transfer Stacks (Thermo #IB23001). The membranes were then blocked in Odyssey Blocking Buffer (Li-COR #927-40000) for one hour, and then probed overnight with primary antibodies diluted in blocking buffer. The following day, membranes were washed 3×5 mins with 1×TBST and then probed with LiCOR Infrared secondary antibodies for 1 hour at room temperature. Membranes were washed an additional 3×5 mins in 1×TBST and then imaged using the LiCOR Imager. […]"}, "[6]": {"tested_on": "MDA-MB-468 and ZR51 breast cancer and JHH7 liver cancer cell lines"}, "[7]": {"tested_on": "MDA-MB-468 and ZR-75-1 cell lines", "details": "AHR sg3 / AHR sg4 knockout vs GFP sg1 or parental Cas9; FIGS. 13A and 13B"}, "[8]": {"biological_target": "T2, recombinant human Adenosine A1 (FAST-001C) receptor (Homo sapiens, UniProt P30542)", "T2 sequence (P30542 1-326)": "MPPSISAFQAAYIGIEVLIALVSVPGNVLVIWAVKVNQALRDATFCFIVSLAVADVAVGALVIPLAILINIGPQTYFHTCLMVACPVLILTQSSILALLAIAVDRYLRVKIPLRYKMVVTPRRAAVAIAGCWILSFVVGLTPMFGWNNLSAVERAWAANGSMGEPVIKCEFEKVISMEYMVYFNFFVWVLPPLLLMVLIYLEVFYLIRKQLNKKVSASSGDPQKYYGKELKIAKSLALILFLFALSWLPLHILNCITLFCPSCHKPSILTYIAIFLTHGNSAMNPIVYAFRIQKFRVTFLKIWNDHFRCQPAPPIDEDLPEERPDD", "assay": "cAMP HTRF assay, Adenosine A1 receptor, antagonist mode", "design": "inhibition: dose or concentration left out as unconfirmed"}, "[9]": {"biological_target": "T3, recombinant human Adenosine A2B (FAST-003C) receptor (Homo sapiens, UniProt P29275)", "T3 sequence (P29275 1-332)": "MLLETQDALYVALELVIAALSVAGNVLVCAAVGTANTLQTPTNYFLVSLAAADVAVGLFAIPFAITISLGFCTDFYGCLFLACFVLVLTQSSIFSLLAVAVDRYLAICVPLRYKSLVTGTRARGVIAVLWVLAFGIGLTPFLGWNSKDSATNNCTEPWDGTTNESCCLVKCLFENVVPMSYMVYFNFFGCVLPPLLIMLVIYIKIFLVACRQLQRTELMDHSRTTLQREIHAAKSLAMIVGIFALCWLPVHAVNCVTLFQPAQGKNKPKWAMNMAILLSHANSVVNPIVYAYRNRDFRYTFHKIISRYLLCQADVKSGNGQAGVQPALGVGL", "assay": "cAMP HTRF assay, Adenosine A2B receptor, antagonist mode", "design": "inhibition: dose or concentration left out as unconfirmed"}, "[10]": {"details": "HEK293, read-out: % Inhibition Average at maximal concentration"}, "[11]": {"details": "antagonist mode dose-response fit"}, "[12]": {"details": "CHO-K1, read-out: % Inhibition Average at maximal concentration"}}}
{"molecule": "Nc1nc2ccc(Cl)cc2c2nc(-c3ccco3)nn12", "note": "[CGS-15943, reference compound]", "values": [{"measurement": "inhibition at 10 µM", "setting": "[1]; [10]", "value": 125, "unit": "%"}, {"measurement": "Hill Coefficient", "setting": "[1]; [11]", "value": 1.25}, {"measurement": "inhibition at 10 µM", "setting": "[2]; [12]", "value": 68.9, "unit": "%"}, {"measurement": "Hill Coefficient", "setting": "[2]; [11]", "value": 1.66}, {"measurement": "IC50", "setting": "[2]; antagonist mode, CHO-K1, reference agonist IB-MECA", "value": 2090, "unit": "nM"}, {"measurement": "CYP1A1-dependence of the cytotoxic response", "setting": "[3]", "value": "CYP1A1-dependent cytotoxic"}, {"measurement": "cytotoxicity to breast cancer cell lines", "setting": "[4]", "value": "cytotoxic"}, {"measurement": "CYP1A1 expression", "setting": "[5]; 24 hour time course", "value": "induced CYP1A1 expression"}, {"measurement": "FOXA1 levels", "setting": "[5]; 24 hour time course", "value": "maintenance of FOXA1 levels"}, {"measurement": "DNA double stranded breaks (pH2A.X) and PARP cleavage", "setting": "[5]; within 24 hours", "value": "induced DNA double stranded breaks and PARP cleavage"}, {"measurement": "AHR-dependence of the cytotoxic response", "setting": "[6]", "value": "dependence upon AHR"}, {"measurement": "dependence of cytotoxic activity on AHR", "setting": "[7]", "value": "required intact AHR expression"}, {"measurement": "inhibition", "setting": "[8]; [12]", "value": 106, "unit": "%"}, {"measurement": "Hill Coefficient", "setting": "[8]; [11]", "value": 0.92}, {"measurement": "inhibition", "setting": "[9]; [10]", "value": 120, "unit": "%"}, {"measurement": "Hill Coefficient", "setting": "[9]; [11]", "value": 1.75}]}
